Twelve compounds from US8686028B2, “Substituted benzfurochromenes and related compounds for the prevention and treatment of bone related disorders” (Council of Scientific & Industrial Research, priority 2008, dated 2014) can be followed below.

The test system of data set [1] is ovariectomized immature female rats. The data set can be described thus: Anti-estrogenicity, uterine fresh weight with ethynyl estradiol co-treatment. The conditions noted are these: 10 mg/Kg oral plus ethynyl estradiol 0.01 mg/kg. It counts as in vivo, rat. Here is the method: (§1) 21 day old immature female rats (25-30 grams) were ovariectomized and given 7 days post-operative rest. Thereafter they were treated orally with the test agent (10 mg/Kg body weight) or with vehicle or Ethynyl estradiol, the reference standard for three consecutive days. For anti-estrogenicity, other than the test chemical, ethynyl estradiol (0.01 mg/kg) was given at 15 minutes interval before the test chemical. Autopsy was done 24 h after last treatment and uterine fresh weight was taken.

Data set [2] deals with Immature 21 d old female SD rat. The data set is described as follows: In vivo efficacy, BMD in immature female SD rats. Particulars: 10 mg/kg daily, one month; vehicle = 100. The protocol: Immature 21 d old female SD rat model was chosen, animals were randomized into four groups and treated with a daily dose of test agent or vehicle for one month and autopsied on day 31.
[…], the animals were shifted to metabolic cage for acclaimatization for 24 h with food and water. Post acclaimatization animals were further left in metabolic cage for 24 h with water but no food. Blood and urine samples were collected after 24 h. Various biochemical parameters like serum calcium, serum phosphorus, serum osteocalcin, serum alkaline phosphatase (ALP) were evaluated. The animals were autopsied on day 31 and lumbar vertebrae, femur and tibia bones were isolated, cleaned and fixed in 70% ethanol in saline and stored at 4° C. until BMD measurement. Initial and final body weight and uterine weight at autopsy were recorded. BMD measurements of region of interest (lumbar: global, L1-L4; femur: global, neck and mid-shaft; tibia: global, proximal and tibio-fibula junction point) was performed using a bone densitometer (Model 4500 Elite, Hologic) fitted with commercially available software (QDR 4500 ACCLAIM series) for a fan-beam DXA system that permits determination of bone densitometry and measurement of body composition in small animals in vivo.

A short description of data set [3]: Pharmacokinetic studies in Sprague Dawley rats. The class given is in vivo. Particulars: rat, plasma, SD rats, oral dose of 5 mg/kg. The protocol:
In-vivo pharmacokinetic parameters were generated in Sprague Dawley rats at a dose of 5 mg/kg by oral route of administration. The blood samples were drawn at 0.25, 0.5, 0.75, 1.0, 1.5, 2.0, 2.5, 4.0, 6, 8, 10, 12, 18, 24, 28, 36 and 48 hours, processed and analyzed by Liquid Chromatography-Mass Spectrometry (LC-MS). Plasma concentration at different time points were plotted to give Plasma Concentration Time Profile and the data was fitted non-compartmentally using Win NonLin 5.1 version software and the estimates of pharmacokinetic parameters were derived with SD mean values.

The subject of data set [4] is Calvarial osteoblast cells. The data set can be described thus: MTT cell proliferation assay. The class given is cell-based, rat. The conditions noted are these: 10^−10 M to 10^−6M, 24 hrs. Here is the method:
(§2) Neonatal rat calvarial cell cultures are prepared as described previously (Endocrinology 145:3451) using slight modification. Briefly, for primary osteoblast cell cultures, frontal and parietal bones from Sprague-Dawley rat neonates (1-3 day old) are digested in 0.1% collagenase/0.1% dispase in α-MEM to obtain 5 sequential digests. The second through fifth digests are combined and grown to confluence at 37° C. and 5% CO2 in air in α-MEM, supplemented with 10% fetal bovine serum (FBS), 2 mM glutamine, 100 U/ml penicillin-streptomycin, Non-essential amino acid solution and sodium pyruvate.
MTT [3-(4,5-dimethylthiazol-2-yl)-2,5-diphenyltetrazolium bromide] assay, first described by Mosmann in 1983, is based on the ability of a mitochondrial dehydrogenase enzyme from viable cells to cleave the tetrazolium rings of the pale yellow MTT and form a dark blue formazan crystals which is largely impermeable to cell membranes, thus resulting in its accumulation within healthy cells. Solubilisation of the cells by the addition of a detergent results in the liberation of the crystals which are solubilized. The number of surviving cells is directly proportional to the level of the formazan product created. The color can then be quantified using a simple colorimetric assay. The results can be read on a multiwell scanning spectrophotometer (Mosmann T. Rapid colorimetric assay for cellular growth and survival: application to proliferation and cytotoxicity assays. J Immunol Methods. 1983 Dec. 16; 65(1-2):55-63).
Calvarial osteoblast cells plated at a density of 2.0×10^3 cells/200 ul in 96 wells plates. Cells were grown to 60% confluency and then treated with following compounds S006-1709, S006-1710, 5006-1711, S006-1713 and; S006-1714 at concentrations ranging from 10^−10 M to 10^−6M for 24 hrs. After treatment media was removed and 10 mM MTT was added solution in phenol red free DMEM media. After an incubation of 4 hrs the MTT solution was removed. Blue colored crystals were formed which were dissolved in DMSO and absorbance was read on ELISA plate reader at 570 nm wavelength.

The test system of data set [5] is ovariectomized immature female rats. The data set can be described thus: Estrogenicity, uterine fresh weight in ovariectomized immature female rats. It counts as in vivo, rat. Particulars: three consecutive days, vehicle 16.46. The protocol:
as §1

Another data set deals with Calvarial osteoblasts. The data set can be described thus: Alkaline phosphatase (ALP) activity for osteoblast differentiation, calvarial osteoblasts. The conditions noted are these: osteoblasts, concentrations not given. It counts as cell-based, rat. Here is the method: as §2
70 to 80% confluent Calvarial osteoblasts were treated with μM S006-1709 for 48 h in the presence of ascorbate and glycerophosphate. At the end of incubation period, total ALP activity was measured with a method using p-nitrophenylphosphate (PNPP) as substrate. The reaction mixture contained diethanolamine buffer (1 mol/L, pH 9.8), 0.5 mmol/L MgCl2.6H2O, and 10 mmol/L PNPP. ALP activity was measured by taking OD of the amount of colored product formed by the dephosphorylation of PNPP at 405 nm. […] In addition, the effect of S006-1709 on mineralization of calvarial osteoblasts was studied.
We then studied its effect in osteoblast differentiation in both calvarial and bone marrow osteoblasts. Confluent calvarial osteoblasts (70 to 80%) were treated with S006-1710 for 48 h in the presence of ascorbate and glycerophosphate at concentrations ranging from 10^−16M to 10^−6M. At the end of incubation period, total ALP activity was measured with the same method used previously using p-nitrophenylphosphate (PNPP) as substrate.
70 to 80% confluent Calvarial osteoblasts were treated with S007-1351 for 48 h in the presence of ascorbate and glycerophosphate. At the end of incubation period, total ALP activity was measured with a method using p-nitrophenylphosphate (PNPP) as substrate. The reaction mixture contained diethanolamine buffer (1 mol/L, pH 9.8), 0.5 mmol/L MgCl2.6H2O, and 10 mmol/L PNPP. ALP activity was measured by taking OD of the amount of colored product formed by the dephosphorylation of PNPP at 405 nm.
70 to 80% confluent calvarial osteoblasts were treated with S007-1352 for 48 h in the presence of ascorbate and glycerophosphate at concentrations ranging from 10^−12M to 10^−6 M. At the end of incubation period, total ALP activity was measured with the same method used previously using p-nitrophenylphosphate (PNPP) as substrate.

For orientation: AUC means concentration integrated over time. One may read the MRT as the average time that molecules of a dose stay in the body. As usually defined, the melting point is the temperature, or range, at which the solid turns liquid.

As for `Oc1ccc2c(c1)OCC1c3ccccc3OC21` (stereo not drawn) [Compound S006-1709, 6a,11a-Dihydro-6H-benzo[4,5]furo[3,2-c]chromen-3-ol], the melting point fell in the range of 148 to 152 °C. Moreover, the “Anti-Estrogenic Activity (uterine fresh weight)” value in data set [1] worked out at 96.86. Besides, the “Anti-Estrogenic Activity, % (second line of cell)” value in data set [1] (relative to ethynyl estradiol) is −1.5%^. Further, in data set [2], the “Change in BMD, Femur Global” value stood at 138.75; the “Change in BMD, Femur Neck” value stood at 141; the “Change in BMD, Femur Shaft” value is listed as 167; the “Change in BMD, Lumber Vertebra Global” value was 120. In addition, in data set [2], the “Change in BMD, Lumber Vertebra LV1” value amounted to 126; the “Change in BMD, Lumber Vertebra LV2” value was 124; the “Change in BMD, Lumber Vertebra LV3” value amounted to 90.3; the “Change in BMD, Lumber Vertebra LV4” value is 125. Moreover, in data set [2], the “Change in BMD, Tibia Global” value is 133; the “Change in BMD, Tibia Head” value is 115; the “Change in BMD, Tibia TFSP” value is reported as 124. Moreover, the AUC in data set [3] (read-out: Area under curve (AUC)) was 32.1 ± 12 ng·h/mL. Also, in data set [3] (read-out: Maximum plasma concentration (Cmax)), the Cmax worked out at 17.5 ± 1.76 ng/mL. Further, the half-life in data set [3] (read-out: elimination half life (T1/2) (converted)) is 2.5 h. Moreover, the MRT in data set [3] (read-out: mean residence time (MRT)) was 3.5 h. The Tmax in data set [3] (read-out: time to achieve maximum plasma concentration (tmax) (converted)) is 0.25 h. Moreover, the “effect on osteoblast proliferation (MTT)” value in data set [4] is “no effect”. The “Estrogenic Activity (uterine fresh weight)” value in data set [5] (10 mg/Kg oral) is 15.8.
As for `COc1ccc(-c2coc3cc(O)ccc3c2=O)c(OC)c1` [Compound S006-1713, 3-(2,4-Dimethoxy-phenyl)-7-hydroxy-chromen-4-one], the “effect on osteoblast proliferation (MTT)” value in data set [4] is “did not have any effect”. Also, in the data set with Calvarial osteoblasts, the “stimulation of ALP activity” value is listed as “non-significant”.
The compound `COc1ccc(-c2coc3cc(O)ccc3c2=O)c(O)c1` [Compound S006-1714, 7-Hydroxy-3-(2-hydroxy-4-methoxy-phenyl)-chromen-4-one] gave a melting point of 210 to 212 °C. Moreover, in data set [4], the “effect on osteoblast proliferation (MTT)” value is given as “did not have any effect”. Moreover, in the data set on Calvarial osteoblasts, the “stimulation of ALP activity” value is given as “non-significant”.
Take `O=c1c(-c2ccccc2O)coc2cc(O)c(Cl)cc12` [Compound S007-1354, 6-Chloro-7-hydroxy-3-(2-hydroxy-phenyl)-chromen-4-one]: the melting point was > 250 °C. Besides, in the data set with Calvarial osteoblasts, the “stimulation of ALP activity” value was “non-significant”.
Taken in the same sequence, the figures for `COc1ccccc1-c1coc2cc(O)c(Cl)cc2c1=O` [Compound S007-1355, 6-Chloro-7-hydroxy-3-(2-methoxy-phenyl)-chromen-4-one] were 228 to 230 °C and “non-significant”.
In turn, `Cc1c(O)ccc2c(=O)c(-c3ccccc3O)coc12` [Compound S007-1498, 7-Hydroxy-3-(2-hydroxy-phenyl)-8-methyl-chromen-4-one] returned a melting point of 196 to 198 °C. For the same compound, in the data set on Calvarial osteoblasts, the “stimulation of ALP activity” value is recorded as “non-significant”.
Taken in the same sequence, the figures for `Cc1c(O)ccc2c1OCC1c3ccccc3OC21` (stereo not drawn) [Compound S007-1499, 4-Methyl-6a,11a-dihydro-6H-benzo[4,5]furo[3,2-c]chromen-3-ol] were 160 to 162 °C and “non-significant”.
With `Cc1c(OCC#N)ccc2c1OCC1c3ccccc3OC21` (stereo not drawn) [Compound S007-1501, (4-Methyl-6a,11a-dihydro-6H-benzo[4,5]furo[3,2-e]chromen-3-yloxy)-acetonitrile], in the data set on Calvarial osteoblasts, the “stimulation of ALP activity” value was “non-significant”.
In the case of `CC(C)Oc1ccc2c(c1)OCC1c3ccccc3OC21` (stereo not drawn) [Compound S-008-0398, 3-Isopropoxy-6a,11a-dihydro-6H-benzofuro[3,2-c]chromene], the melting point fell in the range of 96 to 98 °C.
On to `c1ccc2c(c1)OC1c3ccc(OCCN4CCCCC4)cc3OCC21` (stereo not drawn) [Compound S-008-0399, 1-(2-(6a,11a-Dihydro-6H-benzofuro[3,2-c]chromen-3-yloxy)ethyl)piperidine], for which the melting point lay in the range of 202 to 204 °C.
On the same count and under the same terms, as for `C=CCOc1ccc2c(c1)OCC1c3ccccc3OC21` (stereo not drawn) [Compound S-008-0625, 3-(Allyloxy)-6a,11a-dihydro-6H-benzofuro[3,2-c]chromene], the figure is 72 to 74 °C.
Take `C#C[C@]1(O)CC[C@H]2[C@@H]3CCc4cc(O)ccc4[C@H]3CC[C@@]21C` [Ethnyl Estradiol, Ethynyl estradiol, reference compound]: the “Estrogenic Activity (uterine fresh weight)” value in data set [5] (reference standard, 0.01 mg/Kg) is reported as 98.3.
